Measured values from ChEMBL document CHEMBL1201862, “PubChem BioAssay data set” (2004).
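Results reflect a 48-hour exposure of cells in 96-well plates to compound at five concentrations. Here, GI50 denotes the concentration required for 50% inhibition of growth.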 Active and inactive are the calls of the source. Rule as the data show it: active = GI50 up to about 1.1 µM and inactive = higher.

How the values were obtained:
Assay in all cases: NCI tumour cell line growth inhibition, 48 h
A498 = system: A498
CAKI-1 = system: CAKI-1
DLD-1 = system: DLD-1
HCC 2998 = system: HCC 2998
HCT-116 = system: HCT-116
M14 = system: M14
MOLT-4 = system: MOLT-4
NCI-H522 = system: NCI-H522
RPMI-8226 = system: RPMI-8226
RXF 393 = system: RXF 393
SF-268 = system: SF-268
SF-539 = system: SF-539
SK-OV-3 = system: SK-OV-3
SW-620 = system: SW-620
U-251 = system: U-251
UACC-62 = system: UACC-62
EKVX = system: EKVX
Hs-578T = system: Hs-578T
MDA-MB-231 = system: MDA-MB-231
PC-3 = system: PC-3

## O=C(N/C(=C\c1ccc([N+](=O)[O-])cc1)c1nc2ccccc2s1)c1ccccc1
A498
  GI50: 31.3 µM (inactive)
CAKI-1
  GI50: 31 µM (inactive)
DLD-1
  GI50: 19.9 µM (inactive)
HCC 2998
  GI50: 57.4 µM (inactive)
HCT-116
  GI50: 27 µM (inactive)
M14
  GI50: 31.9 µM (inactive)
MOLT-4
  GI50: 19.1 µM (inactive)
NCI-H522
  GI50: > 10 µM (inactive)
RPMI-8226
  GI50: 19.2 µM (inactive)
RXF 393
  GI50: 28.6 µM (inactive)
SF-268
  GI50: 20.1 µM (inactive)
SF-539
  GI50: 23.6 µM (inactive)
SK-OV-3
  GI50: > 100 µM (inactive)
SW-620
  GI50: 26.7 µM (inactive)
U-251
  GI50: 31.6 µM (inactive)
UACC-62
  GI50: 20.4 µM (inactive)

## CCOc1ccc(NCC2CC/C(=C\c3ccc(Cl)cc3)C2=O)cc1 (centres undefined)
A498
  GI50: > 49.5 µM (inactive)
CAKI-1
  GI50: > 45.1 µM (inactive)
DLD-1
  GI50: 10 µM (inactive)
EKVX
  GI50: 38.6 µM (inactive)
HCC 2998
  GI50: 13 µM (inactive)
HCT-116
  GI50: 31.1 µM (inactive)
M14
  GI50: 20.4 µM (inactive)
MOLT-4
  GI50: 16.8 µM (inactive)
NCI-H522
  GI50: 6.25 µM (inactive)
RPMI-8226
  GI50: 2.54 µM (inactive)
RXF 393
  GI50: > 47.9 µM (inactive)
SF-268
  GI50: > 55.2 µM (inactive)
SF-539
  GI50: > 41.7 µM (inactive)
SK-OV-3
  GI50: > 100 µM (inactive)
SW-620
  GI50: 17.1 µM (inactive)
U-251
  GI50: 25.8 µM (inactive)
UACC-62
  GI50: > 40.7 µM (inactive)

## O=C(CC1C(=O)c2ccccc2C1=C1C(=O)c2ccccc2C1=O)c1ccccc1 (centres undefined)
A498
  GI50: > 100 µM (inactive)
CAKI-1
  GI50: > 100 µM (inactive)
DLD-1
  GI50: > 100 µM (inactive)
EKVX
  GI50: > 100 µM (inactive)
HCC 2998
  GI50: > 100 µM (inactive)
M14
  GI50: > 100 µM (inactive)
MOLT-4
  GI50: 77.3 µM (inactive)
NCI-H522
  GI50: 19.9 µM (inactive)
RPMI-8226
  GI50: > 100 µM (inactive)
RXF 393
  GI50: > 100 µM (inactive)
SF-268
  GI50: > 100 µM (inactive)
SF-539
  GI50: > 100 µM (inactive)
SK-OV-3
  GI50: > 100 µM (inactive)
SW-620
  GI50: > 100 µM (inactive)
U-251
  GI50: > 100 µM (inactive)
UACC-62
  GI50: > 100 µM (inactive)

## SC1=NC2(CCCCCC2)NN1c1ccccc1
A498
  GI50: 50.5 µM (inactive)
CAKI-1
  GI50: 0.218 µM (active)
DLD-1
  GI50: 0.34 µM (active)
EKVX
  GI50: 36.5 µM (inactive)
HCC 2998
  GI50: 0.386 µM (active)
Hs-578T
  GI50: > 100 µM (inactive)
M14
  GI50: 1.61 µM (inactive)
MDA-MB-231
  GI50: > 100 µM (inactive)
MOLT-4
  GI50: 0.891 µM (active)
NCI-H522
  GI50: > 100 µM (inactive)
PC-3
  GI50: 29.6 µM (inactive)
RPMI-8226
  GI50: 0.769 µM (active)
SF-268
  GI50: 0.184 µM (active)
SK-OV-3
  GI50: > 100 µM (inactive)
SW-620
  GI50: 1.78 µM (inactive)
UACC-62
  GI50: 0.0208 µM (active)

## COc1cc2cc3c4c(cc(OC)c(OC)c4c2cc1OC)CCN3C(=O)CCCC(=O)O
A498
  GI50: > 100 µM (inactive)
CAKI-1
  GI50: > 100 µM (inactive)
DLD-1
  GI50: > 100 µM (inactive)
EKVX
  GI50: > 100 µM (inactive)
HCC 2998
  GI50: > 100 µM (inactive)
HCT-116
  GI50: > 100 µM (inactive)
M14
  GI50: > 100 µM (inactive)
MOLT-4
  GI50: > 100 µM (inactive)
NCI-H522
  GI50: > 100 µM (inactive)
RPMI-8226
  GI50: > 100 µM (inactive)
RXF 393
  GI50: > 100 µM (inactive)
SF-268
  GI50: > 100 µM (inactive)
SF-539
  GI50: > 100 µM (inactive)
SK-OV-3
  GI50: > 100 µM (inactive)
SW-620
  GI50: > 100 µM (inactive)
U-251
  GI50: > 100 µM (inactive)
UACC-62
  GI50: > 100 µM (inactive)

## O=C(CC1C(=O)Nc2ccccc2[S+]1[O-])Nc1cccc(Cl)c1 (centres undefined)
A498
  GI50: 13.2 µM (inactive)
CAKI-1
  GI50: 20.7 µM (inactive)
DLD-1
  GI50: > 100 µM (inactive)
EKVX
  GI50: > 47.4 µM (inactive)
HCC 2998
  GI50: > 47.5 µM (inactive)
HCT-116
  GI50: 31.6 µM (inactive)
Hs-578T
  GI50: 38.1 µM (inactive)
M14
  GI50: > 42.4 µM (inactive)
MDA-MB-231
  GI50: 7.31 µM (inactive)
MOLT-4
  GI50: > 37.7 µM (inactive)
RPMI-8226
  GI50: 7.98 µM (inactive)
RXF 393
  GI50: 20.9 µM (inactive)
SF-268
  GI50: 55.1 µM (inactive)
SF-539
  GI50: 18.6 µM (inactive)
SK-OV-3
  GI50: 31.3 µM (inactive)
SW-620
  GI50: > 48 µM (inactive)
U-251
  GI50: 33.7 µM (inactive)
UACC-62
  GI50: > 43.1 µM (inactive)

## Cc1nn(-c2ccccc2)c(S)c1C(=O)c1ccccc1
A498
  GI50: 21 µM (inactive)
CAKI-1
  GI50: > 100 µM (inactive)
DLD-1
  GI50: 4.85 µM (inactive)
EKVX
  GI50: 18.6 µM (inactive)
HCC 2998
  GI50: 29.8 µM (inactive)
M14
  GI50: 31.1 µM (inactive)
MOLT-4
  GI50: 24.4 µM (inactive)
NCI-H522
  GI50: 36.6 µM (inactive)
RPMI-8226
  GI50: 19.1 µM (inactive)
RXF 393
  GI50: 3.41 µM (inactive)
SF-268
  GI50: 51.1 µM (inactive)
SF-539
  GI50: 40.7 µM (inactive)
SK-OV-3
  GI50: > 100 µM (inactive)
SW-620
  GI50: 32.6 µM (inactive)
U-251
  GI50: > 100 µM (inactive)
UACC-62
  GI50: 47.1 µM (inactive)

## Nc1ccc(CCN2CCN(c3cccc(C(F)(F)F)c3)CC2)cc1
A498
  GI50: 80.9 µM (inactive)
CAKI-1
  GI50: > 100 µM (inactive)
DLD-1
  GI50: 97.1 µM (inactive)
EKVX
  GI50: 55.5 µM (inactive)
HCC 2998
  GI50: 17.3 µM (inactive)
HCT-116
  GI50: > 100 µM (inactive)
M14
  GI50: 82.6 µM (inactive)
MOLT-4
  GI50: 4.38 µM (inactive)
NCI-H522
  GI50: 14.3 µM (inactive)
RPMI-8226
  GI50: 45.2 µM (inactive)
RXF 393
  GI50: 89.5 µM (inactive)
SF-268
  GI50: > 100 µM (inactive)
SF-539
  GI50: > 100 µM (inactive)
SK-OV-3
  GI50: > 100 µM (inactive)
U-251
  GI50: 91.2 µM (inactive)
UACC-62
  GI50: > 100 µM (inactive)

## COc1ccc(NC(=O)C2=CC(=O)c3ccc(O)cc3C2=O)c(OC)c1
A498
  GI50: > 100 µM (inactive)
CAKI-1
  GI50: > 100 µM (inactive)
DLD-1
  GI50: > 100 µM (inactive)
EKVX
  GI50: > 100 µM (inactive)
HCC 2998
  GI50: > 100 µM (inactive)
HCT-116
  GI50: > 100 µM (inactive)
M14
  GI50: > 100 µM (inactive)
MOLT-4
  GI50: > 100 µM (inactive)
RPMI-8226
  GI50: > 100 µM (inactive)
RXF 393
  GI50: > 100 µM (inactive)
SF-268
  GI50: > 100 µM (inactive)
SF-539
  GI50: > 100 µM (inactive)
SW-620
  GI50: > 100 µM (inactive)
U-251
  GI50: > 100 µM (inactive)
UACC-62
  GI50: > 100 µM (inactive)

## O=C1CCC2(c3ccc(F)cc3)Nc3ccccc3N12 (centres undefined)
A498
  GI50: > 100 µM (inactive)
CAKI-1
  GI50: > 100 µM (inactive)
DLD-1
  GI50: > 100 µM (inactive)
EKVX
  GI50: > 100 µM (inactive)
HCC 2998
  GI50: > 100 µM (inactive)
M14
  GI50: > 100 µM (inactive)
MOLT-4
  GI50: > 100 µM (inactive)
NCI-H522
  GI50: > 100 µM (inactive)
RPMI-8226
  GI50: > 100 µM (inactive)
RXF 393
  GI50: > 100 µM (inactive)
SF-268
  GI50: > 100 µM (inactive)
SF-539
  GI50: > 100 µM (inactive)
SK-OV-3
  GI50: > 100 µM (inactive)
SW-620
  GI50: > 100 µM (inactive)
U-251
  GI50: > 100 µM (inactive)
UACC-62
  GI50: > 100 µM (inactive)

## Nc1ccc2c(SCC(=O)Nc3ccccc3-c3ccccc3NC(=O)CSc3c4ccccc4nc4cc(N)ccc34)c3ccccc3nc2c1
A498
  GI50: 29.9 µM (inactive)
CAKI-1
  GI50: 45.5 µM (inactive)
DLD-1
  GI50: 12.9 µM (inactive)
EKVX
  GI50: 39.6 µM (inactive)
HCC 2998
  GI50: 36.1 µM (inactive)
HCT-116
  GI50: 24.5 µM (inactive)
Hs-578T
  GI50: > 59.3 µM (inactive)
M14
  GI50: 24.4 µM (inactive)
MDA-MB-231
  GI50: > 50.4 µM (inactive)
MOLT-4
  GI50: 3.35 µM (inactive)
NCI-H522
  GI50: 6.52 µM (inactive)
PC-3
  GI50: 22.2 µM (inactive)
RPMI-8226
  GI50: 8.47 µM (inactive)
RXF 393
  GI50: 34.9 µM (inactive)
SF-268
  GI50: 37.1 µM (inactive)
SF-539
  GI50: 32.1 µM (inactive)
SK-OV-3
  GI50: 43.2 µM (inactive)
SW-620
  GI50: 29.6 µM (inactive)
U-251
  GI50: 22 µM (inactive)
UACC-62
  GI50: 18.9 µM (inactive)

## COc1cc(CC2c3cc(OC)c(OC)cc3CCN2C)c(C(=O)O)cc1OC (centres undefined)
A498
  GI50: > 100 µM (inactive)
DLD-1
  GI50: > 100 µM (inactive)
EKVX
  GI50: > 100 µM (inactive)
HCC 2998
  GI50: > 100 µM (inactive)
HCT-116
  GI50: > 100 µM (inactive)
M14
  GI50: > 100 µM (inactive)
MOLT-4
  GI50: > 100 µM (inactive)
NCI-H522
  GI50: > 100 µM (inactive)
RPMI-8226
  GI50: > 100 µM (inactive)
RXF 393
  GI50: > 100 µM (inactive)
SF-268
  GI50: > 100 µM (inactive)
SF-539
  GI50: > 100 µM (inactive)
SK-OV-3
  GI50: > 100 µM (inactive)
SW-620
  GI50: > 100 µM (inactive)
U-251
  GI50: > 100 µM (inactive)
UACC-62
  GI50: > 100 µM (inactive)
